Experiment [1] has as its system A549. Kind of experiment: Cell cycle arrest in human A549 cells assessed as accumulation at G1 phase at 10 uM after 24 hrs by flow cytometry analysis (reference value: 68.78 +/- 2.43%). The experiment is classed as functional.
Experiment [2] has as its system A549. The experiment is described as follows: Cell cycle arrest in human A549 cells assessed as accumulation at S phase at 10 uM after 24 hrs by flow cytometry analysis (reference value: 16.23 +/- 1.73%). Format: functional.
The test system of experiment [3] is A549. The experiment is described as follows: Cell cycle arrest in human A549 cells assessed as accumulation at G2/M phase at 10 uM after 24 hrs by flow cytometry analysis (reference value: 14.18 +/- 1.03%). Format: functional. Background: Flow cytometry measures light scatter and fluorescence of single cells or particles in a stream.
For experiment [4], the system named is A549. The experiment is described as follows: Antiproliferative activity against human A549 cells by MTT assay. Format: functional, cell-based.

Usually IC50 stands for the concentration that gives 50% inhibition. The low end stands for inhibition by little substance, the high end for a need for much substance. As for `CC(C)=CCC/C(C)=C\Cc1c(O)c(-c2c(O)c(C/C=C(/C)CCC=C(C)C)c3c(c2O)C(=O)CC(c2ccc(O)c(O)c2)O3)c(O)c2c1OC(c1ccc(O)c(O)c1)CC2=O` (configuration not stated), the Activity in the experiment on A549 [1] is 88.88%; with A549 [2], 5.05%; in the experiment on A549 [3] it was 5.05%. In addition, in the experiment with A549 [4], the midpoint of inhibition, the IC50, lay at 8.9 µM.

For the compound `COc1cc(C2CC(=O)c3c(O)cc(O)c(C/C=C(\C)CCCC(C)(C)O)c3O2)cc(O)c1O` (configuration not stated), the IC50 in the experiment with A549 [4] amounted to 23.7 µM. Turning to `COc1cc(C2CC(=O)c3c(cc(O)c(C/C=C(\C)CCCC(C)(C)O)c3O)O2)cc(O)c1O` (configuration not stated), 22.1 µM corresponded to half-maximal inhibition in the experiment on A549 [4] (IC50). The same measure, in the same setting: the result for `C=C1C(=O)[C@]23[C@H](O)[C@H]1CC[C@H]2[C@@]12CO[C@]3(O)[C@@H](O)[C@@H]1C(C)(C)CC[C@@H]2O` [ORIDONIN] reads 18.7 µM.
